{
  "source": "paper PMC9698773",
  "about": "“Design, Synthesis, Molecular Modeling, and Anticancer Evaluation of New VEGFR-2 Inhibitors Based on the Indolin-2-One Scaffold” (Pharmaceuticals, 2022)",
  "tested_on": "BAX",
  "test": "BAX expression assay (Western blot)",
  "type": "cell-based, human",
  "details": "HepG2, 1.13 µM, 24 h",
  "experimental": "The expression of BAX and Bcl-2 were evaluated in the HepG2 cells after treatment with 1.13 µM of compound 17a for 24 h. The Western blotting technique was utilized to determine the levels of Bax and Bcl-2 proteins and estimate the Bax/Bcl-2 ratio.\nThe expression of apoptotic BAX and antiapoptotic Bcl-2 proteins in the liver HepG2 cells treated with 1.13 μM of 17a was determined using Western blot analysis, as described in the Supplementary Materials. […]\nCasp3 F: 5ʹ‐ […] ‐3ʹ\nCasp3 R: 5ʹ‐ […] ‐3ʹ […]\nβ‐actin F: 5ʹ‐[…]‐3ʹ […]\nβ‐actin R: 5ʹ‐[…]‐3ʹ […]\n4.2.6. Bax and Bcl‐2 expression assay\nThe expression of BAX and Bcl‐2 proteins were determined using Western blot anal‐ ysis. In brief, HepG2 cells were treated with control or with the synthesized compound 17a (1.13 μM). Then cells were lysed in 250 μL precold lysis buffer (pH 7.4: Tris‐Base [10 mM], NaCl [100 mM], ethylenediaminetetraacetic acid [EDTA, 25 mM], ethylene glycol bis (2‐ aminoethyl) tetraacetic acid [EGTA, 25 mM], 1% [v/v] NP‐40, and 1% [v/v] Triton X‐100) supplemented with 1:350 protease:phosphatase inhibitors cocktail (Sigma). The cells were immediately frozen at −20°C for 1.5 hours for further analysis, collected by cell scraper, sonicated 3 × 10 seconds, and centrifuged (13000 rpm, 15 minutes). Total protein concentrations in the supernatant were colorimetrically determined using the Pierce 660 nm Protein Assay method (Thermo Fisher Scientific, Rockford, IL), with BSA as the stand‐ ard. Equal amounts of protein (25 μg) samples were mixed with SDS‐loading buffer (pH 6.8: Tris‐HCl [700 mM], dithiothreitol [DTT, 600 mM], sodium dodecyl sulfate [SDS, 12%], glycerol [60%], and bromophenol blue [0.012%]), denatured by boiling at 95°C for 10 minutes, allowed to cool on ice for 15 minutes, vigorously vortexed for 30 seconds, loaded into SDS‐polyacrylamide gel and separated by an electrophoresis unit (Cleaver Scientific Ltd, UK), and transferred onto polyvinylidene fluoride membranes (Bio‐Rad) for 35 minutes using a Trans‐Blot SD semi‐dry transfer cell (Bio‐Rad) at 250 mA and 22 V. Mem‐ branes were blocked with 5% (w/v) blotting grade dry milk (Bio‐Rad) in Tris‐buffered saline/Tween‐20 (TBS‐T) (pH 7.5: Tris‐base [20 mM], NaCl [150 mM], and 0.05% [v/v] Tween‐ 20) while shaken for 1.5 hour at RT, and then incubated with the corresponding primary antibody against BAX (Biovision, USA) and Bcl‐2 (Bioimaging, system, syngene, UK) for 9‐10 hours at 4°C in a humidified chamber. […] Means of the detected blot intensities were then quantified, analyzed by the combined Bio‐Rad Image Lab soft‐ ware and their corresponding background subtracted, with normalization to the corre‐ sponding bands density of β‐actin as the sampling loading control. […]",
  "note": "“And” between values parts separate entries of the source, which are not always exact repeats. Identical values can stand only once.",
  "data": [
    {"smiles": "O=C1Nc2ccccc2C1=Nc1ccc(C(=O)NNC(=S)Nc2ccccc2)cc1", "note": "[Compound 17a, 2-(4-((2-Oxoindolin-3-ylidene)amino)benzoyl)-N-phenylhydrazinecarbothioamide]", "values": [
      {"measurement": "increase of BAX expression versus control", "value": "2.69 fold and 2.7 fold"},
      {"measurement": "increase of BAX/Bcl-2 ratio versus control", "value": 5, "unit": "fold"},
      {"measurement": "Protein Expression (Normalized to β-Actin) BAX", "setting": "control 0.175", "value": 0.472},
      {"measurement": "BAX/Bcl-2 Ratio", "setting": "control 0.41", "value": 2.06}
    ]}
  ]
}
